In PubChem BioAssay (NCI) one finds TGI and GI50 data, which are given here for nine compounds.

Among the test systems are BT-549 breast; COLO 205 colon; HCT-116 colon; HOP-92 NSCLC; NCI-H522 lung; OVCAR-8 ovarian; PC-3 prostate; SR leukemia.
Holding throughout (test): DTP human tumour cell line panel, 48 h

Molecules are shown by their SMILES. “And” between values parts separate entries of the source, which are not always exact repeats. Identical values can stand only once.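 Cells were grown in 96-well plates and exposed to each compound for 48 hours at five concentrations; endpoints were interpolated linearly between bracketing concentrations, or set to the highest concentration if not reached. GI50 is the concentration that inhibits growth by half. TGI denotes the concentration required for complete inhibition of growth.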

For orientation: TGI means the concentration giving total growth inhibition. Read a high TGI as lower sensitivity of the cells. By GI50 is commonly meant the concentration that inhibits growth by half.

Consider `O=C1CC(C(=O)O)Cc2c(Br)ccc(O)c21` (stereo not drawn), for which the TGI in the test on BT-549 breast, with COLO 205 colon, in the test on HCT-116 colon, with HOP-92 NSCLC, in the test on NCI-H522 lung and in the test on OVCAR-8 ovarian was > 100 µM in each case. The TGI with PC-3 prostate and in the test with SR leukemia was > 100 µM each time.

On to `O=C(COc1cccc(/C=C2\COc3ccccc3C2=O)c1)c1ccccc1`, for which the GI50 in the test with BT-549 breast is 5.3 µM; in the test on COLO 205 colon, 2.93 µM; with HCT-116 colon, 2.12 µM; in the test with HOP-92 NSCLC, 2.94 µM; in the test on NCI-H522 lung, 1.81 µM; in the test with OVCAR-8 ovarian, 3.35 µM. Further, the GI50 was 2.11 µM with PC-3 prostate and 2.17 µM with SR leukemia. Besides, the concentration for total growth inhibition (TGI) in the test with BT-549 breast came out at 22.2 µM; in the test on COLO 205 colon, 10.3 µM; with HCT-116 colon, 4.08 µM; with HOP-92 NSCLC, 16.8 µM; in the test on NCI-H522 lung, 3.79 µM; with OVCAR-8 ovarian, 11.2 µM. In addition, the total growth inhibition concentration (TGI) with PC-3 prostate amounted to 5.16 µM; with SR leukemia it was 6.66 µM.

Consider `Cc1ccc(/C=C(/C#N)n2nnc3ncccc32)cc1`, for which the GI50 was 2.46 µM with BT-549 breast; 2.25 µM in the test with COLO 205 colon; 2.2 µM in the test on HCT-116 colon; 1.82 µM in the test with HOP-92 NSCLC; 0.255 µM with NCI-H522 lung; 3.16 µM in the test on OVCAR-8 ovarian. Also, the GI50 in the test with PC-3 prostate is 4.18 µM; in the test with SR leukemia, 0.765 µM. Also, the TGI was 19.7 µM in the test with BT-549 breast; 10.5 µM in the test with COLO 205 colon; 11.1 µM with HCT-116 colon; 6.19 µM with HOP-92 NSCLC; 0.878 µM with NCI-H522 lung; > 100 µM in the test on OVCAR-8 ovarian. For the same compound, the values for the concentration for total growth inhibition (TGI) with PC-3 prostate and in the test with SR leukemia were 21.2 µM and 26.8 µM, respectively.

Turning to `Cc1ccc(S(=O)(=O)OCC(=O)Nc2ccc(C(=O)O)c(O)c2)cc1`, the GI50 is 71.6 µM in the test on BT-549 breast; 113 µM in the test with COLO 205 colon; 20.5 µM in the test on HCT-116 colon; 20 µM with HOP-92 NSCLC; 11.9 µM in the test on NCI-H522 lung; 30.3 µM with OVCAR-8 ovarian. The GI50 in the test on PC-3 prostate is 30.4 µM; in the test on SR leukemia it was 0.195 µM. Further, the TGI with BT-549 breast was 206 µM; in the test with COLO 205 colon, 259 µM; in the test on HCT-116 colon, 69 µM; with HOP-92 NSCLC, 56.7 µM; in the test with NCI-H522 lung, 34.6 µM; in the test with OVCAR-8 ovarian, 106 µM. Besides, the values for the TGI in the test on PC-3 prostate and in the test with SR leukemia were 131 µM and 7.08 µM, respectively.

With `CCSc1nc(NC(C)c2ccccc2)c2cnn(CO)c2n1` (stereo not drawn), the GI50 with BT-549 breast was 17.7 µM; in the test on COLO 205 colon, > 100 µM; with HCT-116 colon, > 100 µM; with HOP-92 NSCLC, 18.2 µM; in the test on NCI-H522 lung, 14.7 µM; in the test with OVCAR-8 ovarian, 99.3 µM. In addition, the GI50 in the test on PC-3 prostate is 38.5 µM; in the test on SR leukemia, 79.4 µM. Also, the total growth inhibition concentration (TGI) is 64.1 µM in the test with BT-549 breast; > 100 µM in the test with COLO 205 colon; > 100 µM in the test on HCT-116 colon; 97.1 µM in the test on HOP-92 NSCLC; > 100 µM with NCI-H522 lung; > 100 µM with OVCAR-8 ovarian. Besides, the concentration for total growth inhibition (TGI) in the test with PC-3 prostate and in the test with SR leukemia was > 100 µM throughout.

`O=C(Nc1ccn(C2CC(I)C(COC(c3ccccc3)(c3ccccc3)c3ccccc3)O2)c(=O)n1)c1ccccc1` (stereo not drawn): the TGI with BT-549 breast stood at 67 µM; with COLO 205 colon, 12.8 µM; with HCT-116 colon, 12.2 µM; in the test on HOP-92 NSCLC it was 13.2 µM; in the test with NCI-H522 lung, 21.5 µM; in the test with OVCAR-8 ovarian it was 13.1 µM. Besides, the results for the total growth inhibition concentration (TGI) with PC-3 prostate and in the test on SR leukemia were 20.9 µM and 2.15 µM, respectively.

`CCNC(=O)Oc1ccc(/C(=C(\C)c2ccc(Cl)cc2)c2ccc(OCCN(CC)CC)cc2)cc1`: the GI50 in the test with BT-549 breast is 5.33 µM; with COLO 205 colon, 1.94 µM; with HCT-116 colon it was 2.04 µM; in the test on HOP-92 NSCLC it was 3.16 µM; with NCI-H522 lung, 13.3 µM; in the test with OVCAR-8 ovarian, 9.25 µM. Also, the GI50 is 3.89 µM in the test with PC-3 prostate and 2.55 µM with SR leukemia. The TGI in the test on BT-549 breast was determined as 18.5 µM; in the test with COLO 205 colon it was 3.94 µM; in the test with HCT-116 colon it was 4.86 µM; in the test with HOP-92 NSCLC, 12.6 µM; in the test on NCI-H522 lung, 28.1 µM; with OVCAR-8 ovarian it was 29.1 µM. Further, the total growth inhibition concentration (TGI) is 14.1 µM in the test with PC-3 prostate and 10.7 µM in the test on SR leukemia.

As for `C=C1C[C@@H](O)[C@@H](Br)C(C)(C)[C@]12CCC(C)(Br)C(Cl)C2` (stereo partly drawn), the GI50 is 18.9 µM in the test on BT-549 breast; 0.627 µM in the test with COLO 205 colon; 19.3 µM with HCT-116 colon; 20.3 µM in the test with HOP-92 NSCLC; 17.4 µM in the test with NCI-H522 lung; 21.7 µM in the test with OVCAR-8 ovarian. Moreover, the GI50 was 0.107 µM in the test with PC-3 prostate and 18.9 µM in the test on SR leukemia. Besides, the concentration for total growth inhibition (TGI) with BT-549 breast was > 50 µM and 38.3 µM; in the test on COLO 205 colon, 1.71 µM and 2.09 µM; with HCT-116 colon it was > 50 µM and 36.2 µM; with HOP-92 NSCLC, > 50 µM and 39.3 µM; in the test with NCI-H522 lung, > 50 µM and 32.1 µM; with OVCAR-8 ovarian, > 50 µM and 50.1 µM. Moreover, the TGI with PC-3 prostate is 10.8 µM and 2.29 µM; in the test with SR leukemia it was > 50 µM and 37.2 µM.

In the case of `C[C@@H]1CC[C@H]2[C@@H](C)C(OC/C=C/COC3O[C@@H]4O[C@@]5(C)CC[C@H]6[C@H](C)CC[C@@H]([C@H]3C)[C@@]46OO5)O[C@@H]3O[C@@]4(C)CC[C@@H]1[C@]32OO4` (stereo partly drawn), the GI50 was 0.0304 µM in the test with BT-549 breast; < 0.01 µM in the test with COLO 205 colon; < 0.01 µM with HCT-116 colon; < 0.0179 µM in the test with HOP-92 NSCLC; 0.0898 µM in the test with NCI-H522 lung; < 0.01 µM in the test with OVCAR-8 ovarian. Moreover, the GI50 in the test on PC-3 prostate and in the test with SR leukemia was < 0.01 µM in each case. Besides, the TGI in the test with BT-549 breast is > 100 µM; with COLO 205 colon it was 0.228 µM; in the test with HCT-116 colon it was 13.9 µM; with HOP-92 NSCLC it was 45.4 µM; in the test with NCI-H522 lung, > 100 µM; in the test on OVCAR-8 ovarian it was > 38 µM. Besides, the TGI with PC-3 prostate was > 100 µM; with SR leukemia, 3.85 µM.
